US20110160081A1, “FUNCTIONAL COMPLEMENTATION ASSAY FOR DEFINED GPCR OLIGOMERS” (priority 2008, published 2011)

How the values were obtained:
[1] = test system: endogenous purinergic receptors; assay: Aequorin assay, endogenous receptors in AEQ cells; type: cell-based
From the text: To enable isolation of the signaling of the D2R from endogenous G proteins, and to control each of the components of the signaling complex, Flp-In 1-Rex-293 cells were engineered to stably express aequorin (AEQ cells) (see Example 1). Aequorin produces luminescence in a calcium-dependent manner in the presence of the substrate coelenterazine (23, 24), and it has been used to create a sensitive luminescence readout for GPCR-mediated PLC activation (25). In these cells, endogenous muscarinic or purinergic receptors signaled robustly via endogenous Gq, resulting in strong agonist-induced (ACH and ATP, respectively) luminescence signals (FIG. 7A).

[2] = test system: WT D2R coexpressed with D2/D4-Gqi5; assay: Aequorin functional complementation assay, WT D2R as protomer A with D2/D4-Gqi5 as protomer B; type: cell-based, human; details: L745,870 1 μM; agonist quinpirole; n=9
From the text: (§1) The signals were further normalized according to Flag tagged D2R expression level. To normalize for different levels of surface expression levels of the Flag-D2R-Gqi5 mutant constructs, the Emax at each expression level (FIG. 12F) was plotted as a function of different levels of expression of Flag-tagged wt D2R-Gqi5, the expression of which was controlled by varying the time after tetracycline induction (FIG. 12A). The level of Myc-D2R remained essentially unchanged (FIG. 12B). The standard curve was fit to a 1 site rectangular hyperbola using nonlinear regression in GraphPad Prism 4.0 (GraphPad Software Inc., La Jolla, Calif.) (FIG. 12G). The luminescence response of the various Flag-D2R-Gqi5 constructs was normalized using this standard curve to account for the effects of different expression levels, with activation of 1 defined as that observed after 12 hours of tetracycline induction of WT D2R-Gqi5. The Flag detection was approximately 5-fold more sensitive than that of Myc; thus, the excess of Myc-tagged protomer A, which cannot signal on its own, ensures that normalization based on surface expression of the Flag-tagged Gqi5-fused protomer B accurately reflects the productive signaling entities, each of which must contain a protomer A and a protomer B.

[3] = target: T1, SSTR5 coexpressed with D2R-Gqi5 (Homo sapiens, UniProt P14416+P35346); type: cell-based
T1 construct: signal peptide (N); expressed in transfected cells; host or cells: AEQ cells (Flp-in T-rex 293 with aequorin)

[4] = target: T2, SSTR5 coexpressed with D114A-Gqi5 (Homo sapiens, UniProt P35346); type: cell-based
T2 construct: signal peptide (N); expressed in transfected cells; host or cells: AEQ cells (Flp-in T-rex 293 with aequorin)

[5] = target: T3, D2R coexpressed with free Gqi5 (Homo sapiens, UniProt P14416); type: cell-based; details: pertussis toxin 100 ng/ml 16-24 hours
T3 construct: signal peptide (N); expressed in transfected cells; host or cells: Flp-in T-rex 293 cells stably expressing aequorin

[6] = target: T4, D2R coexpressed with D2-Gqi5 (Homo sapiens, UniProt P14416); assay: Aequorin functional complementation assay, D2R coexpressed with D2R-Gqi5; type: cell-based; details: pertussis toxin 100 ng/ml 16-24 hours
T4 construct: signal peptide (N); expressed in transfected cells; host or cells: Flp-in T-rex 293 cells stably expressing aequorin
From the text: as §1, with “B. […]” for “B.”

T1 sequence (P35346 whole entry): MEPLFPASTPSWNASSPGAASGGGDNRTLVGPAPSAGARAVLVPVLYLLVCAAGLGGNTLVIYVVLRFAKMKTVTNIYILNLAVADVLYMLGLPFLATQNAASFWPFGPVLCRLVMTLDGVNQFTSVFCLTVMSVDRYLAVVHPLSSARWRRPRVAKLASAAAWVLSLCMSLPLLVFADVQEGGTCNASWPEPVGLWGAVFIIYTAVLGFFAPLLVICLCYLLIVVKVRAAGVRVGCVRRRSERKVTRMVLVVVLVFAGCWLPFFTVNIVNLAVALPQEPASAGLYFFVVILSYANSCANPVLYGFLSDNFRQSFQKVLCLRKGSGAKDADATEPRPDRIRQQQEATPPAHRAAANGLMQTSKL
T1 sequence (P14416 with tags, fused parts or gaps isoform P14416-2): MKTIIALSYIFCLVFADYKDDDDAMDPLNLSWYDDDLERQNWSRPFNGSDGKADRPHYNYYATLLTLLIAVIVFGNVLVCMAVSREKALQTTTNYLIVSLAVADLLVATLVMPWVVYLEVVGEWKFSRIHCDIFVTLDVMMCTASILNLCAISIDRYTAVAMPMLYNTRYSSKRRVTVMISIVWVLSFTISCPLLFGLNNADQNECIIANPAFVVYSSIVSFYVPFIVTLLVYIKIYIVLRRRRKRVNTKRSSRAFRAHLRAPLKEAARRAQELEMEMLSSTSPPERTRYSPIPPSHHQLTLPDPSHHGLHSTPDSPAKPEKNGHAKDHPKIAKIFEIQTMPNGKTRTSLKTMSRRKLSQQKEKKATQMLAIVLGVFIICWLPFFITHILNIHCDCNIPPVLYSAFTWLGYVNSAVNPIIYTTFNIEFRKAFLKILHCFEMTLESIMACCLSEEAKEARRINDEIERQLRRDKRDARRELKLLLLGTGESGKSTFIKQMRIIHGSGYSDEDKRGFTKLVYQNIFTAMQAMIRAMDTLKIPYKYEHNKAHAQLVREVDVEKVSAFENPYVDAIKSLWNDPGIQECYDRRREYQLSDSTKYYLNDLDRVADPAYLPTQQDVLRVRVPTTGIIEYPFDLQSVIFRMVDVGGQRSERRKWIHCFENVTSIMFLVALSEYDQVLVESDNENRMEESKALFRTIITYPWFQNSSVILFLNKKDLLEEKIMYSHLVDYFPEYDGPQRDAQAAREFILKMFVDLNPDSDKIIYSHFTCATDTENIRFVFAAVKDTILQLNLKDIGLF
T2 sequence (P35346 whole entry, stated change not applied): as the sequence (P35346 whole entry) above
T2 sequence (P14416 with tags, fused parts or gaps isoform P14416-2 D114A partner): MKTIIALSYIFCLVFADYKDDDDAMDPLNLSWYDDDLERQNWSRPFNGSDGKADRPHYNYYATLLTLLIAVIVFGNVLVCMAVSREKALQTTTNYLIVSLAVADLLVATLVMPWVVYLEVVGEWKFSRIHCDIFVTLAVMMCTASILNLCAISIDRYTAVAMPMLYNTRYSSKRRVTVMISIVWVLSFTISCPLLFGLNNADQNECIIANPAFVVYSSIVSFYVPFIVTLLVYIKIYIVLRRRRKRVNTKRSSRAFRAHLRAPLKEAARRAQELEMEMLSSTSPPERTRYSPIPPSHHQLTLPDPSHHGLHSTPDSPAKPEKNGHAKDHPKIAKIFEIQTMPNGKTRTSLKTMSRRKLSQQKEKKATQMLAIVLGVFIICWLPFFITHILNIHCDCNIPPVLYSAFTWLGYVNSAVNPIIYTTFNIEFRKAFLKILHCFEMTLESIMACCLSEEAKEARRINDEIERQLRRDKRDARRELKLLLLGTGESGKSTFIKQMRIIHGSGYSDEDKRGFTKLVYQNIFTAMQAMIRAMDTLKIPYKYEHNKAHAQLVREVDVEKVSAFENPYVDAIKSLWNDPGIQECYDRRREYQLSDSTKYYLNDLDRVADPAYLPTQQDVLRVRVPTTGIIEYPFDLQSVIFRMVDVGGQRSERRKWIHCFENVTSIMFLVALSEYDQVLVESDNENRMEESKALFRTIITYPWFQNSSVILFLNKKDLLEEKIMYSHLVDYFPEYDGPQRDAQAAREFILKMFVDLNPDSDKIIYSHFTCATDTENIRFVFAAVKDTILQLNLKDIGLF
T3 sequence (P14416 with tags, fused parts or gaps isoform P14416-2): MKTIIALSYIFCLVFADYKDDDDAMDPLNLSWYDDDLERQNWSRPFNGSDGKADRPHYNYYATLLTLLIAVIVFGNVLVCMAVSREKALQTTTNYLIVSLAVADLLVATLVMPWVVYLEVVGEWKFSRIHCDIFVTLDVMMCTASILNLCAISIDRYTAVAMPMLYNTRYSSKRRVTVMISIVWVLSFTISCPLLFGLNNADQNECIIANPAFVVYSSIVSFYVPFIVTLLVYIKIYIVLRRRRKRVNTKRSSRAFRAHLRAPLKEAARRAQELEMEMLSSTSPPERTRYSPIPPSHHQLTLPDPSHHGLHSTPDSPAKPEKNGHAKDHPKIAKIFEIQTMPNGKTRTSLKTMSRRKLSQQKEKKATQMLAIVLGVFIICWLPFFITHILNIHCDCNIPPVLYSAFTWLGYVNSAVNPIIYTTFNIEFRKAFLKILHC
T4 sequence (P14416 with tags, fused parts or gaps isoform P14416-2): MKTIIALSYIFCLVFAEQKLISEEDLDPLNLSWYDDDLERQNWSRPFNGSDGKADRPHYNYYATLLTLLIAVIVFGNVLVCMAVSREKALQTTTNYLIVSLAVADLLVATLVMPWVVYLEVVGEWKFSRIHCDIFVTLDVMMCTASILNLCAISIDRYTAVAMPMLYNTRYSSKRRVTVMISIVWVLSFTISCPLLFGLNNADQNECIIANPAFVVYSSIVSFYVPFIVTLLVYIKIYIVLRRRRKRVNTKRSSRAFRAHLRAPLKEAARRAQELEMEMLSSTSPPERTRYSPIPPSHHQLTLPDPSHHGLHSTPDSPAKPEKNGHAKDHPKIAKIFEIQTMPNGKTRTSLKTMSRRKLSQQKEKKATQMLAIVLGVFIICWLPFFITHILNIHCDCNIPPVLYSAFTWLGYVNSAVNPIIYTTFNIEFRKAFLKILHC
T4 sequence (P14416 with tags, fused parts or gaps isoform P14416-2): as the sequence (P14416 with tags, fused parts or gaps isoform P14416-2 D114A partner) above, with A138D counted along it

Nc1ncnc2c1ncn2[C@@H]1O[C@H](COP(=O)(O)OP(=O)(O)OP(=O)(O)O)[C@@H](O)[C@H]1O [ATP]
agonist-induced luminescence signal via endogenous Gq [1]: strong

Cl.Cl.Cl.Clc1ccc(N2CCN(Cc3c[nH]c4ncccc34)CC2)cc1 [L745,870, 3-(4-[4-Chlorophenyl]piperazin-1-yl)-methyl-1H-pyrrolo[2,3-b]pyridine trihydrochloride]
maximal activation, % of that observed for D2R coexpressed with WT D2R-Gqi5 [2]: 156.7±7.3%

CCN1CCCC1CNC(=O)c1cc(S(N)(=O)=O)ccc1OC (centres unmarked) [sulpiride]
enhancement of potency of somatostatin by sulpiride relative to quinpirole ([3]; D2R inverse agonist sulpiride versus agonist quinpirole): about 6 fold
effect on SSTR5 activation (luminescence readout) ([3]; coadministration of 1 μM with somatostatin): enhanced
shift in the SST curve ([3]; in presence of compound, data not shown): full shift
effect on SSTR5 activation (luminescence readout) [4]: without effect

pertussis toxin
effect of PTX on increase in luminescence [5]: unaffected
effect of pertussis toxin treatment on activation [6]: lack of effect
